# Laboratory results: patent publication US20030097221A1, “Detection and characterization of psychoactives using parallel multi-site assays in brain tissue” (priority 2001, published 2003)
# Values joined by “and” are separate entries in the source; they are usually repeats but may differ in a detail not shown here. Identical values can stand only once.
# Tests used:
# Assay type in all cases: cell-based, rat
# [1] = system: glutamate receptor-mediated evoked excitatory synaptic transmission, hippocampal slice mossy fibers; test: Paired-pulse evoked fEPSP, mossy fibers (assay MF50), MED64; conditions: 250 μM; 50 ms inter-pulse delay
# Method: (§1) A 17-24 day old Sprague Dawley rat was decapitated after anesthesia with halothane (2-bromo-2-chloro-1,1,1-trifluoroethane; Sigma; B4388), and the whole brain was removed. The brain was immediately soaked for ˜2 min in ice-cold, oxygenated preparation buffer of the following composition (in mM): 124 NaCl, 26 NaHCO3, 10 glucose, 3 KCl, 1.25 NaH2PO4, 2 CaCl2, and 2 MgSO4. Appropriate portions of the brain were trimmed and placed on the ice-cold stage of a vibrating tissue slicer (Leica, Nussloch, Germany; VT-1000S). The stage was immediately filled with both oxygenated and frozen preparation buffers. The thickness of each tissue slice was 350 μm. […]
# (§2) Evoked field potentials at all 64 sites (minus stimulation sites) were recorded simultaneously with the multichannel recording system (Panasonic: MED64 system) at a 20 kHz sampling rate. […]
# (§3) All assays employ paired-pulse stimulation at various rat hippocampal sites to elicit evoked responses. The resulting field EPSP recordings were analyzed using Matlab software (The MathWorks, Inc.) by computing several response measures such as amplitude, halfwidth, and negative area, which apply to both the first and second evoked reponses. Amplitude was defined as the maximum depolarization magnitude relative to the average baseline reading prior to the first stimulation pulse. […]
# [2] = system: glutamate receptor-mediated evoked excitatory synaptic transmission, hippocampal slice dentate gyrus; test: Paired-pulse evoked fEPSP in dentate gyrus (assay DG50), MED64; conditions: 250 μM; 50 ms inter-pulse delay
# Method: as §1, with “μm. Each slice was gently taken off the blade, and immediately soaked in the oxygenated artificial cerebrospinal fluid (ACSF) for at least 1 hr at room temperature. Then a slice was placed on the center of the MED probe. The slice was positioned to cover the 8×8 array. After positioning the slice, the MED probe was immediately placed in a box filled with 95% O2 and 5% CO2.” for “μm.”
# as §2, §3
# The polarity of the evoked responses for assay DG50 was reversed before analysis because of the inverted voltage values recorded by the DG50 electrode. Assays SC50, SC200, MF50, and CA3-1—50, however, were analyzed without such a reversal. […]
# (§4) All response paramters were utilized to quantify candidate sample composition effects on the hippocampus. […]
# [3] = system: glutamate receptor-mediated evoked excitatory synaptic transmission, hippocampal slice CA1; test: Paired-pulse evoked fEPSP in CA1, Schaffer collateral stimulation (assays SC50, SC200), MED64 multi-electrode array; parameters: key to SC 50 ms Amplitude fEPSP 1st, Mean / SC 50 ms Amplitude fEPSP 2nd, Mean / SC 200 ms Widths fEPSP 1st, Mean / SC 200 ms Widths fEPSP 2nd, Mean: fractional change vs. last 5 min of pre-wash-in control phase
# Method: A 17-24 day old Sprague Dawley rat was decapitated after anesthesia with halothane (2-bromo-2-chloro-1,1,1-trifluoroethane; Sigma; B4388), and the whole brain was removed. The brain was immediately soaked for ˜2 min in ice-cold, oxygenated preparation buffer of the following composition (in mM): 124 NaCl, 26 NaHCO3, 10 glucose, 3 KCl, 1.25 NaH2PO4, 2 CaCl2, and 2 MgSO4. Appropriate portions of the brain were trimmed and placed on the ice-cold stage of a vibrating tissue slicer (Leica, Nussloch, Germany; VT-1000S). The stage was immediately filled with both oxygenated and frozen preparation buffers. The thickness of each tissue slice was 350 μm. Each slice was gently taken off the blade, and immediately soaked in the oxygenated artificial cerebrospinal fluid (ACSF) for at least 1 hr at room temperature. Then a slice was placed on the center of the MED probe. The slice was positioned to cover the 8×8 array. After positioning the slice, the MED probe was immediately placed in a box filled with 95% O2 and 5% CO2.
# During recording, the slices were continuously perfused with a solution of the following composition: ACSF (in mM): 124 NaCl, 26 NaHCO3, 10 glucose, 3 KCl, 1.25 kH2PO4, 2 CaCl2, 1 MgSO4. All compounds were bath applied at known concentrations and were prepared daily from frozen aliquots. Compounds were purchased from Sigma. Ampakines (CX516, CX546, CX554) were made fresh everyday, and used at concentrations: CX516, 250 μM; CX546, 250 μM; and CX554, 30 μM.
# Baseline, application, and recovery time was usually at 10, 20, and 30 min respectively.
# During electrophysiological recording, the slices on the MED probe were placed in a small CO2 incubator (Asahi Lifescience; model 4020) at 32° C. The slices were placed on an interface, and a moisturized with a 95% O2 and 5% CO2 gas mixture.
# Evoked field potentials at all 64 sites (minus stimulation sites) were recorded simultaneously with the multichannel recording system (Panasonic: MED64 system) at a 20 kHz sampling rate. In the case of the evoked response, one of the planar microelectrodes out of the 64 available was used for the stimulating cathode. Bipolar constant-current pulses (10-50 μA; 0.1 ms) were produced by the data acquisition software via the isolator. The stimulating microelectrode was selected by the 64-switch box.
# All assays employ paired-pulse stimulation at various rat hippocampal sites to elicit evoked responses. The resulting field EPSP recordings were analyzed using Matlab software (The MathWorks, Inc.) by computing several response measures such as amplitude, halfwidth, and negative area, which apply to both the first and second evoked reponses. Amplitude was defined as the maximum depolarization magnitude relative to the average baseline reading prior to the first stimulation pulse. Halfwidth was defined as the duration of the depolarization phase of the evoked response at half its maximum amplitude value. Negative area was obtained by taking the magnitude of the integral of the evoked response curve over all segments with the same polarity as the depolarization phase. This integral spans a time window of 25 msec beginning one msec after the stimulation pulse.
# Amplitudes and halfwidths for both first and second elicited responses were computed for assays SC50, SC200, and CA3-1—50. For DG50 only first and second amplitudes were computed. Negative areas for first and second responses were computed for SC50, SC200, CA3-1—50, and MF50.
# All response paramters were utilized to quantify candidate sample composition effects on the hippocampus. For a given response parameter, the candidate sample composition effect was defined as the percent change of the average measure during the last five minutes of the wash-in phase with respect to the average measure of the last five minutes of the preceding, pre-wash-in control phase. […]
# [4] = system: hippocampal slice regions (CA1, DG, MF); test: Comparison between regions of the slice, area under the curve for all 4 assays (FIG. 9); conditions: prediction drawn from the results of FIG. 9
# Method: All assays employ paired-pulse stimulation at various rat hippocampal sites to elicit evoked responses. The resulting field EPSP recordings were analyzed using Matlab software (The MathWorks, Inc.) by computing several response measures such as amplitude, halfwidth, and negative area, which apply to both the first and second evoked reponses. Amplitude was defined as the maximum depolarization magnitude relative to the average baseline reading prior to the first stimulation pulse. Halfwidth was defined as the duration of the depolarization phase of the evoked response at half its maximum amplitude value. Negative area was obtained by taking the magnitude of the integral of the evoked response curve over all segments with the same polarity as the depolarization phase. This integral spans a time window of 25 msec beginning one msec after the stimulation pulse. […]
# as §4
# To compare the response of tissue slices to candidate sample compositions between different regions of the slice, the area under the curve for all 4 assays was calculated.
# To compare the effect of compounds in candidate sample compositions between different regions of a tissue slice, the area under the curve for all 4 assays was calculated. […]
# [5] = CX516 250 μM, individual slice files, normalized change over control
# [6] = CX516 250 μM, n = 4, normalized change over control
compound,measurement,setting,value
"O=C(c1ccc2nccnc2c1)N1CCCCC1 [CX516, 1-(Quinoxalin-6-ylcarbonyl)piperidine]",mossy fibers' response (area),[1],increase
same,responses recorded in dentate gyrus (amplitude),[2],increase
same,amplitude of both responses in CA1,"[3]; 250 μM, 50 ms or 200 ms delay between stimulation pulses",increase in the amplitude
same,effect on half-width of both responses,"[3]; 250 μM, summary of Table 1",no effect
same,increase of the amplitude of first and second fEPSP,"[3]; 250 μM, summary of Table 1",15-17%
same,SC 50 ms Amplitude fEPSP 1st,[3]; [5],0.276 and 0.211 and 0.087 and 0.110
same,SC 50 ms Amplitude fEPSP 2nd,[3]; [5],0.246 and 0.192 and 0.044 and 0.085
same,SC 50 ms Widths fEPSP 1st,[3]; [5],0.020 and −0.023 and 0.063 and 0.007
same,SC 50 ms Widths fEPSP 2nd,[3]; [5],−0.001 and 0.017 and 0.045 and 0.026
same,SC 200 ms Amplitude fEPSP 1st,[3]; [5],0.260 and 0.206 and 0.093 and 0.114
same,SC 200 ms Amplitude fEPSP 2nd,[3]; [5],0.258 and 0.194 and 0.067 and 0.085
same,SC 200 ms Widths fEPSP 1st,[3]; [5],0.036 and −0.024 and 0.051 and −0.002
same,SC 200 ms Widths fEPSP 2nd,[3]; [5],0.035 and 0.001 and 0.049 and 0.037
same,"SC 50 ms Amplitude fEPSP 1st, Change over Control (%)","[3]; CX516 250 μM, n = 4",17.108%
same,"SC 50 ms Amplitude fEPSP 2nd, Change over Control (%)","[3]; CX516 250 μM, n = 4",14.178%
same,"SC 50 ms Widths fEPSP 1st, Change over Control (%)","[3]; CX516 250 μM, n = 4",1.658%
same,"SC 50 ms Widths fEPSP 2nd, Change over Control (%)","[3]; CX516 250 μM, n = 4",2.168%
same,"SC 200 ms Amplitude fEPSP 1st, Change over Control (%)","[3]; CX516 250 μM, n = 4",16.825%
same,"SC 200 ms Amplitude fEPSP 2nd, Change over Control (%)","[3]; CX516 250 μM, n = 4",15.088%
same,"SC 200 ms Widths fEPSP 1st, Change over Control (%)","[3]; CX516 250 μM, n = 4",1.525%
same,"SC 200 ms Widths fEPSP 2nd, Change over Control (%)","[3]; CX516 250 μM, n = 4",3.055%
same,"SC 50 ms Amplitude fEPSP 1st, Mean",[3]; [6],0.171
same,"SC 50 ms Amplitude fEPSP 2nd, Mean",[3]; [6],0.142
same,"SC 50 ms Widths fEPSP 1st, Mean",[3]; [6],0.017
same,"SC 50 ms Widths fEPSP 2nd, Mean",[3]; [6],0.022
same,"SC 200 ms Amplitude fEPSP 1st, Mean",[3]; [6],0.168
same,"SC 200 ms Amplitude fEPSP 2nd, Mean",[3]; [6],0.151
same,"SC 200 ms Widths fEPSP 1st, Mean",[3]; [6],0.015
same,"SC 200 ms Widths fEPSP 2nd, Mean",[3]; [6],0.031
same,kind of modulation of the responses in CA1 (halfwidth vs amplitude),"[3]; CX516, CX546 250 μM, CX554 30 μM",amplitude only modulation
same,degree to which ampakines enhance activation of interneurons (rank order),[4],CX554>CX546>CX516
